Experimental data reported in patent publication US6890708B2, “Method for improving the quality of sperm for artificial insemination of animals” (priority 2000, dated 2005).
Where two headings read alike, the source gives them in different places.

System: Polymorphonuclear Neutrophils (PMN)
Experiment: In vitro phagocytosis of boar sperm by PMN (phagocytosis assay)
Format: cell-based, pig
Settings: for % of phagocytosed sperm: Exp. 1; for inhibition at 200 µM / inhibition at 500 µM / inhibition at 1000 µM / inhibition at 2000 µM: Sus scrofa, Polymorphonuclear neutrophil, read-out: % inhibition (percentage decrease of phagocytosis relative to control)
Description: Tyrode's medium was used as described as “standard Tyrode's medium” in […] et al. ([…], Harrison, R A P, Miller, N G A, Topper, E K, and Woelders, H, 1998, Enhanced Binding of Zona Pellucida Proteins to the Acrosomal Region of Intact Boar Spermatozoa in Response to Fertilizing Conditions: A Flow Cytometric Study. […] Serum was prepared from blood collected from 11 primiparous sows, pooled, and frozen in aliquots at -80° C. Per experiment, 20 ml peripheral blood of a single Dutch Landrace sow (each experiment a different sow) was collected in heparinized vacutainers (Venoject, Omnilabo, Breda, The Netherlands). The peripheral blood was subsequently diluted with an equal volume of phosphate buffered saline (PBS). […] The supernatant, including the mononuclear cells at the interface, was removed. The pellet was resuspended in 2 ml of ice-cold distilled water to lyse the erythrocytes. […] The PMNs were pelleted by centrifugation for 10 min at 400×g and the lysis procedure was repeated. […] All cell suspensions were pooled together, mixed well, and subjected to centrifugation. The PMN were resuspended in TM-s with inactivated complement, and the cell concentration was determined using a hemocytometer. The PMN preparation was stored overnight at 4° C. […] The viability, assessed by trypan blue exclusion, was >98%. Semen was obtained from Dutch A.I. stations. Per experiment, semen was used from a single Yorkshire breeding boar (each experiment a different boar). At the AI-station, the semen was diluted to a concentration of approximately 30×10^6 cells/ml in Beltsville Thawing Solution (BTS) (Johnson et al., 1988). The diluted semen was stored at 17° C. for up to 48 hours, until the diluted semen sample was used. […] Aliquots of 80 μl of the PMN suspension (see, PMN isolation and preparation of PMNs) in TM or TM-s, with either intact or inactivated complement, were transferred to a 96-well polystyrene microtest plate. […] The samples were incubated with gentle swirling on a test plate shaker. […] The heparin facilitates dissociation of agglutinated PMNs. The samples were thoroughly mixed, left for 15 min., and mixed again. […] The frozen-thawed semen was taken from a large stock of semen from one ejaculate and washed 3 times in PBS prior to use. […] The mounts enabled observation and counting of fluorescently labeled spermatozoa inside and outside the phagocytes. By focusing at different levels in the mount, spermatozoa that were located above or below the PMN could be distinguished from those that were phagocytosed. In many PMNs that had ingested a spermatozoon, the presence of the sperm nucleus or tail caused a conspicuous change of the shape of the PMN. Two hundred spermatozoa were evaluated and classified as inside or outside the PMN (i.e., phagocytosed or not phagocytosed). The same fixed mounts were used to assess the acrosome morphology of the non-phagocytosed spermatozoa at the moment of fixation.

[1] = Exp. 2, 0.2 mM, without pre-incubation, 15 min
[2] = Exp. 2, 0.2 mM, without pre-incubation, 30 min
[3] = Exp. 2, 0.2 mM, without pre-incubation, 60 min
[4] = Exp. 2, 0.5 mM, after pre-incubation, 15
[5] = Exp. 2, 0.5 mM, after pre-incubation, 30
[6] = Exp. 2, 0.5 mM, after pre-incubation, 60
[7] = Exp. 2, 0.5 mM, without pre-incubation, 15 min
[8] = Exp. 2, 0.5 mM, without pre-incubation, 30 min
[9] = Exp. 2, 0.5 mM, without pre-incubation, 60 min
[10] = Exp. 2, 1 mM, after pre-incubation, 15
[11] = Exp. 2, 1 mM, after pre-incubation, 30
[12] = Exp. 2, 1 mM, after pre-incubation, 60
[13] = Exp. 2, 1 mM, without pre-incubation, 15 min
[14] = Exp. 2, 1 mM, without pre-incubation, 30 min
[15] = Exp. 2, 1 mM, without pre-incubation, 60 min
[16] = Exp. 2, 2 mM, after pre-incubation, 15
[17] = Exp. 2, 2 mM, after pre-incubation, 30
[18] = Exp. 2, 2 mM, after pre-incubation, 60
[19] = Exp. 2, 2 mM, without pre-incubation, 15 min
[20] = Exp. 2, 2 mM, without pre-incubation, 30 min
[21] = Exp. 2, 2 mM, without pre-incubation, 60 min
[22] = Exp. 3, 1 mM, pre-incubation of sperm 30 min. at 38° C., 15 min
[23] = Exp. 3, 1 mM, pre-incubation of sperm 30 min. at 38° C., 30 min
[24] = Exp. 3, 1 mM, pre-incubation of sperm 30 min. at 38° C., 60 min

SMILES: Cn1c(=O)c2c(ncn2C)n(C)c1=O [caffeine, 1,3,7-Trimethylxanthine]
- phagocytosis of sperm by PMN in vitro, in words: decreased
- % of phagocytosed sperm (1 mM, without pre-incubation, 1st value column, head not printed): 20%
- % of phagocytosed sperm (1 mM, without pre-incubation, 2nd value column, head not printed): 22%
- % of phagocytosed sperm (1 mM, without pre-incubation, 3rd value column, head not printed): 18%
- % of phagocytosed sperm (2 mM, preincubated 30 min. at 38° C., phagocytosis time 15 min): 22%
- % of phagocytosed sperm (2 mM, preincubated 30 min. at 38° C., phagocytosis time 30 min): 15%
- % of phagocytosed sperm (2 mM, preincubated 30 min. at 38° C., phagocytosis time 60 min): 29%
- % of phagocytosed sperm (2 mM, preincubated 30 min. at 38° C., phagocytosis time 90 min): 20%
- % phagoc. sperm [1]: 48%
- % phagoc. sperm [2]: 73%
- % phagoc. sperm [3]: 75%
- % phag. Sperm [4]: 29%
- % phag. Sperm [5]: 28%
- % phag. Sperm [6]: 42%
- % phagoc. sperm [7]: 40%
- % phagoc. sperm [8]: 67%
- % phagoc. sperm [9]: 68%
- % phag. Sperm [10]: 14%
- % phag. Sperm [11]: 26%
- % phag. Sperm [12]: 24%
- % phagoc. sperm [13]: 29%
- % phagoc. sperm [14]: 58%
- % phagoc. sperm [15]: 62%
- % phag. Sperm [16]: 9%
- % phag. Sperm [17]: 17%
- % phag. Sperm [18]: 21%
- % phagoc. sperm [19]: 28%
- % phagoc. sperm [20]: 51%
- % phagoc. sperm [21]: 56%
- % phag. Sperm [22]: 32%
- % phag. Sperm [23]: 45%
- % phag. Sperm [24]: 56%
- phagocytosis of sperm, in words (Exp. 4, caffeine added to the semen extender the day before use): inhibits phagocytosis after one day
- phagocytosis of sperm by PMN in vitro, in words (Exp. 5, 1 mM): reduced the phagocytosis of sperm by PMN in vitro
- inhibition at 200 µM [1]: 9%
- inhibition at 200 µM [2]: 4%
- inhibition at 200 µM [3]: 3%
- inhibition at 500 µM [4]: 38%
- inhibition at 500 µM [5]: 56%
- inhibition at 500 µM [6]: 33%
- inhibition at 500 µM [7]: 25%
- inhibition at 500 µM [8]: 12%
- inhibition at 500 µM [9]: 12%
- inhibition at 1000 µM [10]: 70%
- inhibition at 1000 µM [11]: 59%
- inhibition at 1000 µM [12]: 62%
- inhibition at 1000 µM [13]: 45%
- inhibition at 1000 µM [14]: 24%
- inhibition at 1000 µM [15]: 19%
- inhibition at 2000 µM [16]: 81%
- inhibition at 2000 µM [17]: 73%
- inhibition at 2000 µM [18]: 67%
- inhibition at 2000 µM [19]: 47%
- inhibition at 2000 µM [20]: 33%
- inhibition at 2000 µM [21]: 27%
- inhibition at 1000 µM [22]: 43%
- inhibition at 1000 µM [23]: 37%
- inhibition at 1000 µM [24]: 29%
